Assay results reported in paper PMC8222254, “Self-assembly of an anion receptor with metal-dependent kinase inhibition and potent in vitro anti-cancer properties” (Nature Communications, 2021).
Several values for one entry are separate records, joined by “and”; a condition that tells them apart may be missing. Equal values may be shown once.

Columns and labels:
HCT116 p53+/+ = assay: Quantification of cellular ATP levels (CellTiterGlo); type: cell-based, human; details: for % ATP Activity (Average): HCT116 p53+/+ cells, average of runs, relative to 0 µM = 100; for ATP levels relative to vehicle control: 20h
Procedure: (§1) ARPE-19 and HCT116 p53^+/+ cells were seeded in 96-well opaque plates at a density of 7500 cells/well. 24 h after seeding, cells were treated for 20 h with a range of concentrations of [[…]]^6+, [L2Zn3]^6+, [[…]]^6+, or vehicle control (2-fold serial dilution from 100-3.125 μM) before determining total cellular ATP content by quantification of luminescence (CellTiterGlo® assay, Promega). ATP levels were normalised relative to levels in vehicle control-treated cells.

ARPE-19 = assay: as above; type: cell-based, human; details: for ATP levels relative to vehicle control: ARPE19, 100μM, 20h; for % ATP Activity (Average): ARPE-19 cells, average of runs, relative to 0 µM = 100
Procedure: as §1

[1] = UV-Vis study of hydrolysis of 4-nitrophenyl phosphate; details: HEPES pH 7.4 / DMSO, blank 0.0129
Procedure: UV–Vis studies were carried out on a Cary 60 UV–Vis spectrophotometer with Thermo cycler attachment and the wavelength range of 800–250 nm was scanned every hour for 43 h whilst the solution was heated at a constant temperature of 37 °C. Progress of hydrolysation of 4-nitrophenyl phosphate to 4-nitrophenol was measured by monitoring the increase in absorption at the wavelength of 400 nm (typical for 4-nitrophenol). HEPES buffer was prepared at pH 7.4. Solutions were prepared by dissolving the ligand L (3.1 mg, 0.005 mmol) and the relevant metal salt (1.5 equivalents with respect to ligand) in DMSO (5 mL). 4-nitrophenyl phosphate (18.6 mg, 0.050 mmol) was dissolved in HEPES buffer (~10 mL, 60 mmol). These solutions were then combined and made up volumetrically to 50 mL with HEPES buffer. Where required Bu4NH2PO4 (0.5 equivalents with respect to ligand) was added to the HEPES buffer.
5. UV-Vis studies of the hydrolysis of disodium 4-nitrophenylphosphate.
UV-Vis studies were carried out on a Cary 60 UV-Vis spectrophotometer with Thermo cycler attachment and the wavelength range of 800 – 250 nm was scanned every hour for 43 hours whilst the solution was heated at a constant temperature of 37 °C. Progress of hydrolysation of 4-nitrophenyl phosphate to 4-nitrophenol was measured by monitoring the increase in absorption at the wavelength of 400 nm (typical for 4-nitrophenol). HEPES buffer was prepared at pH 7.4.
Solutions were prepared by dissolving the ligand L (3.1 mg, 0.005 mmol) and the relevant metal salt (1.5 equiv w.r.t. ligand) in DMSO (5 mL). 4 -nitrophenyl phosphate (18.6 mg, 0.050 mmol) was dissolved in HEPES buffer (~10 mL , 60 mmol) These solutions were then combined and made up volumetrically to 50 mL with HEPES buffer.
(1.5 equiv w.r.t. ligand) in DMSO (5 mL). Tetrabutylammonium phosphate (0.84 mg, 0.0025 mmol) was dissolved in HEPES buffer (~1 mL, 60 mmol) and these solutions were combined. […]

[2] = target: T1, recombinant human AMPK (α1β2γ1) (Homo sapiens, UniProt Q13131); assay: Substrate competition assay (ADP-Glo Kinase Assay); type: biochemical
T1 construct: purchased Promega
Procedure: ATP competition kinase assays were performed by the MRC Protein Phosphorylation and Ubiquitination Unit International Centre for Kinase Profiling (University of Dundee). Inhibition of recombinant human AMPK (α1β2γ1) by 10μM [L2Cu3]^6+ or [L2Zn3]^6+ was evaluated at five different ATP concentrations (0.5, 2, 20, 200 and 500 µM ATP). Substrate competition assays were performed using the ADP-Glo Kinase Assay (Promega) and recombinant human AMPK (α1β2γ1) (Promega) with concentrations of the provided AMPK substrate (SAMStide substrate, Promega) ranging from 1 to 15 mg/ml. Following pre-incubation of substrate with kinase for 5 min 10 µM [L2Cu3]^6+, [L2Zn3]^6+ or solvent control and 50 µM ATP was added to start the kinase reaction. For determination of the effects of AMP on AMPK inhibition by [L2Zn3]^6+, the ADP-Glo Kinase Assay (Promega) was performed in presence of varying of AMP (0, 80, 160 μM).

T1 sequence (Q13131 whole entry): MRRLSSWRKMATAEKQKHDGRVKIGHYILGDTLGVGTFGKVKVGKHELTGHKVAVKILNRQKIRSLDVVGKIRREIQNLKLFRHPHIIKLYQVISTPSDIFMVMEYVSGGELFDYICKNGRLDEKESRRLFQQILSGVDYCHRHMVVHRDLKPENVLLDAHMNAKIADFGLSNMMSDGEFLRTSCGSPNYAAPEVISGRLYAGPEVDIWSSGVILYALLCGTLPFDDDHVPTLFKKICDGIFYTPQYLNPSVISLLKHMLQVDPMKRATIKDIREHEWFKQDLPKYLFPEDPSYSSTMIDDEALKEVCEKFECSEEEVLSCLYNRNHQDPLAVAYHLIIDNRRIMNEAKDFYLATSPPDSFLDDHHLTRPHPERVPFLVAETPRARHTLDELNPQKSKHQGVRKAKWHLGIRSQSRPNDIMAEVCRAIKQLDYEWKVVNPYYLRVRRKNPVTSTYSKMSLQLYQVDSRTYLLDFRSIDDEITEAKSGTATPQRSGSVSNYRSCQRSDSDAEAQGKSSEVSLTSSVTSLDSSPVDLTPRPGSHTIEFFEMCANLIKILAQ
T1 sequence (O43741 whole entry partner): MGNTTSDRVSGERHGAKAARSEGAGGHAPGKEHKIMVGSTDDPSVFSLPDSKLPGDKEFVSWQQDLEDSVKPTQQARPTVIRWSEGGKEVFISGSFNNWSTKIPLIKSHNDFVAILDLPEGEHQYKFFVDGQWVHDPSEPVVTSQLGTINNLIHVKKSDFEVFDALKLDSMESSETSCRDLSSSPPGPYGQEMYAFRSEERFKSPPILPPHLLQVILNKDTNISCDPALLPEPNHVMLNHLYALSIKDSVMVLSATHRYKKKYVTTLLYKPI
T1 sequence (P54619 whole entry partner): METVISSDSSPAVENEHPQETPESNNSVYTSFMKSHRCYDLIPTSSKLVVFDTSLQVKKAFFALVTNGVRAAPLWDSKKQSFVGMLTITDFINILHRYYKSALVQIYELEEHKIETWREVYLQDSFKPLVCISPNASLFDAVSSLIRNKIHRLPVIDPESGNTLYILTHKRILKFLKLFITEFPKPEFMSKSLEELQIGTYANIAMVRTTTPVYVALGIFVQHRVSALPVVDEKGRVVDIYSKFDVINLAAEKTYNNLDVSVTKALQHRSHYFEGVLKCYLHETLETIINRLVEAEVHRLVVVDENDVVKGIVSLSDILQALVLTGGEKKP

SMILES	% ATP Activity (Average) (HCT116 p53+/+; 3.125 µM complex)	% ATP Activity (Average) (HCT116 p53+/+; 6.25 µM complex)	% ATP Activity (Average) (HCT116 p53+/+; 12.5 µM complex)	% ATP Activity (Average) (HCT116 p53+/+; 25 µM complex)	% ATP Activity (Average) (HCT116 p53+/+; 50 µM complex)	% ATP Activity (Average) (HCT116 p53+/+; 100 µM complex)	ATP levels relative to vehicle control (ARPE-19)	% ATP Activity (Average) (ARPE-19; 3.125 µM complex)	% ATP Activity (Average) (ARPE-19; 6.25 µM complex)	% ATP Activity (Average) (ARPE-19; 12.5 µM complex)	% ATP Activity (Average) (ARPE-19; 25 µM complex)	% ATP Activity (Average) (ARPE-19; 50 µM complex)	% ATP Activity (Average) (ARPE-19; 100 µM complex)	Concentration of 4-nitrophenol after 24 hours at 37°C [1]	%AMPK Activity Remaining, Mean ([2]; Substrate 1 mg/ml)	%AMPK Activity Remaining, individual replicates ([2]; Substrate 1 mg/ml)	%AMPK Activity Remaining, Mean ([2]; Substrate 2.5 mg/ml)	%AMPK Activity Remaining, individual replicates ([2]; Substrate 2.5 mg/ml)	%AMPK Activity Remaining, Mean ([2]; Substrate 5 mg/ml)	%AMPK Activity Remaining, individual replicates ([2]; Substrate 5 mg/ml)	other results
[Mn+2].[Mn+2].[Mn+2].c1ccc(-c2csc(NCCN(CCNc3nc(-c4ccccn4)cs3)CCNc3nc(-c4ccccn4)cs3)n2)nc1.c1ccc(-c2csc(NCCN(CCNc3nc(-c4ccccn4)cs3)CCNc3nc(-c4ccccn4)cs3)n2)nc1 [[L2Mn3]6+]	52.15%	40.82%	38.17%	35.09%	31.21%	28.58%	~ 40%	82.98%	75.81%	71.57%	63.68%	53.48%	40.46%	0.1185 mM							ATP levels relative to vehicle control (HCT116 p53+/+; HCT116 p53+/+, 6.25μM): < 50%
CC(=O)[O-].CC(=O)[O-].CC(=O)[O-].CC(=O)[O-].CC(=O)[O-].CC(=O)[O-].[Zn+2].[Zn+2].[Zn+2].c1ccc(-c2csc(NCCN(CCNc3nc(-c4ccccn4)cs3)CCNc3nc(-c4ccccn4)cs3)n2)nc1.c1ccc(-c2csc(NCCN(CCNc3nc(-c4ccccn4)cs3)CCNc3nc(-c4ccccn4)cs3)n2)nc1 [[L2Zn3]6+]	71.75%	63.36%	54.43%	46.16%	35.67%	26.26%	> 70%	91.98%	88.71%	84.92%	79.86%	79.43%	73.40%	0.0361 mM	42.90%	57.40% and 31.37% and 37.80% and 44.50%	28.10%	30.60% and 40.90% and 18.40% and 22.50%	39.40%	31.50% (2×) and 56.70% (2×) and 25.70% (2×) and 43.60% (2×)	ATP levels relative to vehicle control (HCT116 p53+/+; HCT116 p53+/+, concentrations of ≥25μM): < 50%; %AMPK Activity Remaining, Mean ([2]; Substrate 10 mg/ml): 43.70%; %AMPK Activity Remaining, individual replicates ([2]; Substrate 10 mg/ml): 40.20% and 42.80% and 35.20% and 56.50%; %AMPK Activity Remaining, Mean ([2]; Substrate 15 mg/ml): 35.80%; %AMPK Activity Remaining, individual replicates ([2]; Substrate 15 mg/ml): 33.30% and 26.60% and 47.50%
CC(=O)[O-].CC(=O)[O-].CC(=O)[O-].O=P([O-])([O-])[O-].[Zn+2].[Zn+2].[Zn+2].c1ccc(-c2csc(NCCN(CCNc3nc(-c4ccccn4)cs3)CCNc3nc(-c4ccccn4)cs3)n2)nc1.c1ccc(-c2csc(NCCN(CCNc3nc(-c4ccccn4)cs3)CCNc3nc(-c4ccccn4)cs3)n2)nc1 [[L2Zn3(PO4)]3+]														0.0164 mM							
[Cu+2].[Cu+2].[Cu+2].c1ccc(-c2csc(NCCN(CCNc3nc(-c4ccccn4)cs3)CCNc3nc(-c4ccccn4)cs3)n2)nc1.c1ccc(-c2csc(NCCN(CCNc3nc(-c4ccccn4)cs3)CCNc3nc(-c4ccccn4)cs3)n2)nc1 [[L2Cu3]6+]	75.66%	75.32%	74.21%	71.91%	61.46%	38.46%		91.48%	92.26%	92.93%	95.14%	85.50%	56.08%		34.60%	16.20% and 28.30% and 59.40%	20.90%	15.60% and 15.00% and 32.00%	17.00%	18.00% and 15.40% and 17.70%	ATP levels relative to vehicle control (HCT116 p53+/+; HCT116, highest concentration of 100μM): < 50%; %AMPK Activity Remaining, Mean ([2]; Substrate 10 mg/ml): 25.40%; %AMPK Activity Remaining, individual replicates ([2]; Substrate 10 mg/ml): 26.20% and 21.60% and 28.40%; %AMPK Activity Remaining, Mean ([2]; Substrate 15 mg/ml): 17.20%; %AMPK Activity Remaining, individual replicates ([2]; Substrate 15 mg/ml): 13.60% and 12.90% and 25.20%
